From ChEMBL document CHEMBL1201862, “PubChem BioAssay data set” (2004)
Activity calls are given as the source filed them.

Columns and labels:
[1] = target: T1, Leucine aminopeptidase (Plasmodium falciparum 3D7, UniProt Q8IL11); assay: P. falciparum M17LAP inhibitors, primary screen, biochemical, fluorogenic H-Leu-NHMec substrate, 1536-well (AID 1619); assay type: functional
T1 sequence (Q8IL11 whole entry): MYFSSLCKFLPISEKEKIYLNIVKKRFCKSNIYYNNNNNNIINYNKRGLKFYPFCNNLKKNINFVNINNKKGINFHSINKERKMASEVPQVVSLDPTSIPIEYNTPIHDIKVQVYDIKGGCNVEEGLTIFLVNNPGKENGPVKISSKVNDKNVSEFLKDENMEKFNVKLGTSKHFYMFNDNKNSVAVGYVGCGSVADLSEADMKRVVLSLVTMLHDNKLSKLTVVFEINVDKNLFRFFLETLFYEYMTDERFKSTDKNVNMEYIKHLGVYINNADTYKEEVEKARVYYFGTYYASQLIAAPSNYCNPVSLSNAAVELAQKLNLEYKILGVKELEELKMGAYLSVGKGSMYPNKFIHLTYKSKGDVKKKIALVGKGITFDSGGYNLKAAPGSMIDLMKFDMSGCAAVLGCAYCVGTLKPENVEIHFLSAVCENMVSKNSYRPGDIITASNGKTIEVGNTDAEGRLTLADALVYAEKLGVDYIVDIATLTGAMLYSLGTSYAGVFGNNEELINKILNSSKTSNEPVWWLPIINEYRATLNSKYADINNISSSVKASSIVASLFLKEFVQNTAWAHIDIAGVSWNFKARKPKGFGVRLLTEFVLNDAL

[2] = target: T2, Heat shock factor protein 1 (Mus musculus, UniProt P38532); assay: inhibition of MG132-induced HSE-luciferase signal, confirmation, cell-based, NIH3T3, luminescence, dose retest (AID 2382); assay type: functional;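 note: NIH3T3 fibroblasts with HSF1-driven luciferase reporter stressed by proteasome inhibitor MG132; luminescence from HSF1-driven luciferase expression after 8 hours of MG132 stress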
T2 sequence (P38532 whole entry): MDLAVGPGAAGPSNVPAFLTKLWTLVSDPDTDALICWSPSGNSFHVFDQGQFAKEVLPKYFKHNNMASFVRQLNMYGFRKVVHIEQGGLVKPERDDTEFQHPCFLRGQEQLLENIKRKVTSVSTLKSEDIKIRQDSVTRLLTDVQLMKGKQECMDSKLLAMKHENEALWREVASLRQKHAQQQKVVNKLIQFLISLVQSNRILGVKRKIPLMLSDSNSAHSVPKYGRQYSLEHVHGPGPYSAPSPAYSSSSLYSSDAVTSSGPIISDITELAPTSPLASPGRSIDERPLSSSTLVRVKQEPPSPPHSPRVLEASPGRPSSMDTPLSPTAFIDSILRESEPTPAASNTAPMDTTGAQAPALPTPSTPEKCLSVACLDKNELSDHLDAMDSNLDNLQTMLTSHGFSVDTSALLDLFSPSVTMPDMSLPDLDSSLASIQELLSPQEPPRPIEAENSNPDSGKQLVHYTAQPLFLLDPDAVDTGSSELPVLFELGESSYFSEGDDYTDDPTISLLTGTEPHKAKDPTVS

[3] = system: HEK293; assay: inhibitors of LMP1-driven NF-kB reporter, dose response, cell-based, HEK293, luciferase, cherry-pick (AID 588343); assay type: functional; details: Homo sapiens
[4] = Luminescence Cell-Based Dose Confirmation HTS to Identify Activators of 5'UTR Stem-Loop Driven Alpha-Synuclein mRNA Translation in H4 Neuroglioblastoma Cells. [Related pubchem assays: 1829 (Project Summary), 1814 (Primary HTS)]; assay type: functional
[5] = Luminescence Cell-Based Dose Response HTS to Identify Activators of Luciferase Translation or Activity in H4 […] Cells. [Related pubchem assays: 1829 (Project Summary), 1814 (Primary HTS)]; assay type: functional
[6] = system: H4; assay: Luminescence Cell-Based Dose Response HTS to Identify Activators of 5'UTR Stem-Loop Driven Prion Protein mRNA Translation in H4 Neuroglioblastoma Cells. [Related pubchem assays: 1829 (Project Summary), 1814 (Primary HTS)]; assay type: functional; details: Homo sapiens
[7] = inhibitors of intracellular T. cruzi replication, confirmation, NIH3T3 host cells, beta-gal luminescence (AID 2044); assay type: functional, cell-based;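 note: intracellular parasites grown in NIH/3T3 mouse fibroblasts as host cells; luminescent beta-galactosidase reporter signal from transgenic T. cruzi replicating inside host cells; inhibitors lower the luminescence signal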
[8] = cytotoxicity toward NIH3T3 fibroblasts, dose response, counter-screen, cell-based, ATP luminescence, mouse fibroblasts (AID 2010); assay type: functional;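 note: cells exposed to compound for about 90 hours before reading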
[9] = target: T3, DNA repair protein RAD52 homolog (Homo sapiens, UniProt P43351); assay type: functional, biochemical
T3 sequence (P43351 whole entry): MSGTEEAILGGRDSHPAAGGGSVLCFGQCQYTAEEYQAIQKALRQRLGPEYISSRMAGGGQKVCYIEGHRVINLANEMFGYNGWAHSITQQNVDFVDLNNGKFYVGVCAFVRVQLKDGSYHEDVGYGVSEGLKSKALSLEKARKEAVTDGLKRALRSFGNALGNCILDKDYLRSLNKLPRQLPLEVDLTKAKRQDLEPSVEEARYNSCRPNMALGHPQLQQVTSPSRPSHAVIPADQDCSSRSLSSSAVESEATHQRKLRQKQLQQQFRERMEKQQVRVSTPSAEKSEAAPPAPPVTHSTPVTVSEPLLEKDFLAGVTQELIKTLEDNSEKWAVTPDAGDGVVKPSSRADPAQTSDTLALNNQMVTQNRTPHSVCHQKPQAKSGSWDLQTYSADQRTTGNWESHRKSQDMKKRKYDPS

[10] = HepG2 cell cytotoxicity, dose response, cytotoxicity control, plate reader, cherry-pick, antagonist series (AID 743416); assay type: functional, cell-based
[11] = LGR2 antagonists, dose response, cell-based, HEK293, CRE-luciferase reporter, cherry pick, set 2 (AID 743343); assay type: functional;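 note: transfected cells were stimulated with diluted bursicon conditioned medium after compound addition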
[12] = MC4R antagonists, dose response, counter-screen for LGR2 antagonist project, cell-based, plate reader, cherry pick (AID 743444); assay type: functional;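 note: transfected HEK 293 cells stimulated with alpha-MSH peptide; potency of inhibitors of the alpha-MSH evoked signal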
[13] = THP-1 cell cytotoxicity, dose response, cytotoxicity control for non-replicating M. tuberculosis project (AID 489025); assay type: functional
[14] = Vero E6 cell cytotoxicity, dose response, cytotoxicity control for non-replicating M. tuberculosis project, secondary assay (AID 492998); assay type: functional, VeroE6; details: Vero C1008
[15] = cells; assay type: functional
[16] = target: Heat shock protein HSP 90-alpha (Homo sapiens, UniProt P07900); assay type: functional, organism-based
[17] = target: T4, Fatty acid synthase (Homo sapiens, UniProt P49327); assay: FAS thioesterase domain inhibitors, dose response, biochemical, endpoint fluorescence intensity, uHTS hits (AID 624327); assay type: functional;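 note: fluorescence from hydrolysis of an O-methyl fluorescein acyl ester substrate by the enzyme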
T4 sequence (P49327 whole entry, the tested form may be a part): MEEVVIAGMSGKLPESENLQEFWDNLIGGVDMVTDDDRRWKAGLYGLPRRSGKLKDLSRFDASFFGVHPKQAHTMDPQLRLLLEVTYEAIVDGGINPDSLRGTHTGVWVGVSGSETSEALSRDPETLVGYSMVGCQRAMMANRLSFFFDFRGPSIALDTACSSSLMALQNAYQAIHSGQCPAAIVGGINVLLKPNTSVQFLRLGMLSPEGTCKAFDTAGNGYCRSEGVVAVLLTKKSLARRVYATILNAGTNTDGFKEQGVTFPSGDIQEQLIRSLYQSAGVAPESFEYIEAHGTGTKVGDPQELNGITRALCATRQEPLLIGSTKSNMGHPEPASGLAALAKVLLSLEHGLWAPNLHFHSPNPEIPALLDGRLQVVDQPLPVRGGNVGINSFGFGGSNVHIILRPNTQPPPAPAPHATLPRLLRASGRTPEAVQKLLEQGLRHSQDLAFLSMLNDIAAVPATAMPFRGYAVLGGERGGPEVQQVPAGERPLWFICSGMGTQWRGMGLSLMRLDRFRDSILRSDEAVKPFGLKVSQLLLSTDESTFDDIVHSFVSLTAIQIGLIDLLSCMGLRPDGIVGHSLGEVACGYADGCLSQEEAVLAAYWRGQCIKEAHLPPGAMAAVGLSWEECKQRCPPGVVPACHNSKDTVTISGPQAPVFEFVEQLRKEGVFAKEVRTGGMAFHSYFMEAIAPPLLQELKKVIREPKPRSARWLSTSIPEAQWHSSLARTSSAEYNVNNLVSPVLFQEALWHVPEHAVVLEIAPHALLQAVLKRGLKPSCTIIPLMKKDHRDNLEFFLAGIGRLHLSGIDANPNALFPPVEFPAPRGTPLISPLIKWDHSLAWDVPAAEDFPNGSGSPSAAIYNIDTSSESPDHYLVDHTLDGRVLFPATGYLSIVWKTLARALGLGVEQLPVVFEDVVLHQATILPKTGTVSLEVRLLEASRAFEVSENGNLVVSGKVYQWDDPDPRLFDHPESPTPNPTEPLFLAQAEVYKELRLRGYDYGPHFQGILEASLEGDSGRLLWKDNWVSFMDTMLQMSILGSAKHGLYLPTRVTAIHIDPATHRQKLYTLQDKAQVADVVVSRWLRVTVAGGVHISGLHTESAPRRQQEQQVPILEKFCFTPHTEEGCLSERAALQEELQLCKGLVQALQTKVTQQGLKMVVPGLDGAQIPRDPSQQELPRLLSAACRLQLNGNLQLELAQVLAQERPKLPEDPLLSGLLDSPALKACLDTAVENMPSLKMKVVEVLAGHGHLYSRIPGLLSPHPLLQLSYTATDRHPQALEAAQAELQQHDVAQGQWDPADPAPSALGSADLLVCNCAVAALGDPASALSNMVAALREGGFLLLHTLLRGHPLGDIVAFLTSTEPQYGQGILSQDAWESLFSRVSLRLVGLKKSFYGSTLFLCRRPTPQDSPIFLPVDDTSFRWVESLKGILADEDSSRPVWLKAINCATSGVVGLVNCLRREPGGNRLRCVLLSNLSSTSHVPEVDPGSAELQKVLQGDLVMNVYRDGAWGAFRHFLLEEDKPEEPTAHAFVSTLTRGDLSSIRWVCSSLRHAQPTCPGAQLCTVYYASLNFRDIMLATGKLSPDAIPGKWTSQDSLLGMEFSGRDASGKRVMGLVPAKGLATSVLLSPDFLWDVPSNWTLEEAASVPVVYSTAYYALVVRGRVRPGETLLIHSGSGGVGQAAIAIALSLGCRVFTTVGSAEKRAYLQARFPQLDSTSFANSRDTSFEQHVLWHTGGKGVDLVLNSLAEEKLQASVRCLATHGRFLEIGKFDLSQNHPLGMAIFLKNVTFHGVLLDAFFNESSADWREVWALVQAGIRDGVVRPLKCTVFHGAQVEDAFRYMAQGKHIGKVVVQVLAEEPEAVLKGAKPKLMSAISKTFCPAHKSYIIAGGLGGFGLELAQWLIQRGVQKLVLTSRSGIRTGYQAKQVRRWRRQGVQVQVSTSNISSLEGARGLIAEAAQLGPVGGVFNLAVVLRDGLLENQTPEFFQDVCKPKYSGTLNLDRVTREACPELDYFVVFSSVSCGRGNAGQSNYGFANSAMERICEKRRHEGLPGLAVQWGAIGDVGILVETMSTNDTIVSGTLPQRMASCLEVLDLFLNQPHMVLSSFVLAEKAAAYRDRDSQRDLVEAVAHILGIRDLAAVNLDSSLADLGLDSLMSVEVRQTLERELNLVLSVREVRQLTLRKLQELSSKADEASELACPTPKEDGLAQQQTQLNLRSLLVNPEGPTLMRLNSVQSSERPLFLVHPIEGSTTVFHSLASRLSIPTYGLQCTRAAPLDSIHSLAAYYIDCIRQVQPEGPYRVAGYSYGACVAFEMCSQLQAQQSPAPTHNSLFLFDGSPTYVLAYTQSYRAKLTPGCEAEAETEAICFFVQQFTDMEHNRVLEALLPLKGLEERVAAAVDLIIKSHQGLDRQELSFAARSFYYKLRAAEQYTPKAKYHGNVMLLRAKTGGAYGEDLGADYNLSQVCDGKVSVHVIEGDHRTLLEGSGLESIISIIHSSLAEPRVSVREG

[18] = target: T4, Fatty acid synthase; assay: FAS thioesterase domain inhibitors, dose response, biochemical, kinetic fluorescence intensity (AID 624326); assay type: functional;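 note: rate of fluorescence rise from hydrolysis of a fluorogenic O-methyl fluorescein ester substrate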
[19] = cells; assay type: functional, cell-based
[20] = cells; assay type: functional, cell-based; remark: listed apart in the source
[21] = A549 cell cytotoxicity, dose response, cytotoxicity control, plate reader, cherry-pick, antagonist series (AID 743412); assay type: functional, cell-based
[22] = inhibitors of firefly luciferase expression or activity, dose response, H4 neuroglioma cells, luminescence (AID 1990); assay type: functional, cell-based
[23] = Luminescence Cell-Based Dose Response HTS to Identify Inhibitors of 5'UTR Stem-Loop Driven Prion Protein mRNA Translation in H4 Neuroglioblastoma Cells. [Related pubchem assays: 1827 (Project Summary), 1813 (Primary HTS)]; assay type: functional
[24] = inhibitors of SNCA 5'UTR-driven reporter translation, confirmation, H4 neuroglioma cells, luminescence (AID 1988); assay type: functional, cell-based
[25] = intracellular Trypanosoma cruzi inhibitors in host cells – cell-based, plate reader, cherry-pick samples, set 3, dose response (AID 651818); assay type: functional;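 note: compounds incubated with infected cells for about four days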
[26] = P. falciparum Dd2 growth inhibitors, dose response, SYBR Green, cherry-picked samples (AID 1159567); assay type: functional, cell-based
[27] = HepG2 cell cytotoxicity, dose response, cytotoxicity control, cherry-picked samples (AID 1159577); assay type: functional, cell-based
[28] = P. falciparum 3D7-ScDHODH growth inhibitors, dose response, SYBR Green, dry powder samples (AID 1159570); assay type: functional, cell-based;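 note: parasite growth measured after 72 hours of compound exposure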
[29] = HepG2 cell cytotoxicity, dose response, cytotoxicity control, plate reader, dry powder samples (AID 1159569); assay type: functional, cell-based;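 note: inhibitor potency with signal falling toward the positive control level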
[30] = P. falciparum Dd2 growth inhibitors, dose response, SYBR Green, dry powder samples (AID 1159566); assay type: functional, cell-based;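 note: potency for growth inhibition with lower SYBR green DNA signal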
[31] = P. falciparum ATP4 D1247Y mutant growth inhibitors, dose response, NITD609-resistant line, SYBR Green, dry powder (AID 1159571); assay type: functional, cell-based;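 note: parasites synchronized at ring stage by sorbitol before testing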

CCCn1c(C)cc(C(=O)COC(=O)c2cccnc2O)c1C
IC50 [1]: 15.3 µM (active) | EC50 [2]: 0.289 µM (active) | AC50 [3]: 5.4 µM (active)

COc1cc2c(cc1OC)C(c1ccc(-c3ccccc3Cl)o1)=NCC2
AC50 [3]: 15.2 µM (active)

COc1cccc(-c2nc(N3CCN(C)CC3)c3ccccc3n2)c1O
EC50 [4]: > 120 µM (not active) | EC50 [5]: 12.9 µM (active) | EC50 [6]: > 120 µM (not active) | EC50 [7]: < 0.1 µM (active) | EC50 [8]: > 60 µM (not active) | AC50 [9]: 3.52 µM (active)

CCOC(=O)c1sc(NC(=O)Nc2ccccc2F)nc1C
AC50 [10]: > 52 µM (inactive) | AC50 [11]: 2.48 µM (active) | AC50 [12]: 4.34 µM (active)

CN1C(=O)C(=C(Nc2ccccc2)SCc2ccccc2Cl)C(=O)N(C)C1=O
CC50 [13]: > 40 µM (active) | CC50 [14]: > 20 µM (active) | IC50 [15]: 3.96 µM (active)

CC(C)(C)SCCNC(=O)c1ccc(Cl)c([N+](=O)[O-])c1
AC50 [16]: 2.84 µM (active) | IC50 [17]: 6.39 µM (active) | IC50 [18]: 5.65 µM (active)

CCC(c1nnnn1Cc1ccco1)N(CCc1ccccc1)Cc1cc2cc(C)ccc2nc1O (centres undefined)
IC50 [19]: > 29.9 µM (inactive) | EC50 [20]: > 29.9 µM (inactive)

Cc1ccc(-c2nnc(NC(=O)c3ccco3)o2)c(C)c1
CC50 [13]: > 40 µM (active) | CC50 [14]: 17.5 µM (active) | IC50 [15]: 0.81 µM (active)

C=CCc1c(C)nc2cc(-c3ccc(C)cc3)nn2c1O
AC50 [21]: 13.6 µM (active) | AC50 [10]: 22.6 µM (active) | AC50 [11]: 26.4 µM (active) | AC50 [12]: 26.2 µM (active)

CCc1nc(SCC(=O)c2ccc3c(c2)OCCO3)c2ccccc2n1
AC50 [3]: 32.8 µM (active)

O=C(Nc1cccc(Cl)c1N1CCCC1)c1ccc([N+](=O)[O-])o1
CC50 [13]: 24 µM (active) | CC50 [14]: 12.4 µM (active) | IC50 [15]: 18.4 µM (active)

CC(=O)OCCc1c2ccccc2c(CCCN(C)C)c2ccccc12
EC50 [22]: > 120 µM (not active) | EC50 [23]: > 120 µM (not active) | EC50 [24]: > 120 µM (not active) | AC50 [9]: 11.2 µM (active)

C[C@H](CO)N1C[C@H](C)[C@@H](CN(C)S(=O)(=O)c2ccc(F)cc2)Oc2c(NC(=O)NC3CCCCC3)cccc2C1=O
AC50 [25]: 7.84 µM (active)

Cc1ccc(S(=O)(=O)Nc2ccc3c(c2)C(=O)N([C@@H](C)CO)C[C@H](C)[C@H](CN(C)Cc2ccc(-c4ccccc4)cc2)O3)cc1
AC50 [25]: 5.6 µM (active)

C[C@@H]1CCCCO[C@@H](CN(C)Cc2ccc(C(=O)Nc3ccccc3N)cc2)[C@@H](C)CN([C@H](C)CO)C(=O)c2cc(NS(=O)(=O)c3cccs3)ccc2O1
AC50 [25]: 2.39 µM (active)

C[C@H]1CN([C@@H](C)CO)C(=O)Cc2cc(NS(=O)(=O)c3ccc(Cl)cc3)ccc2O[C@@H]1CN(C)Cc1ccc(Oc2ccccc2)cc1
AC50 [25]: 3.33 µM (active)

C[C@@H]1CN([C@H](C)CO)C(=O)Cc2cc(NS(=O)(=O)c3ccc(Cl)cc3)ccc2O[C@H]1CN(C)Cc1ccccc1
AC50 [25]: 3.09 µM (active)

C[C@H]1CN([C@@H](C)CO)C(=O)CCCn2nncc2CO[C@@H]1CN(C)C(=O)Nc1ccc(N2CCN(C)CC2)cc1
AC50 [9]: 28.2 µM (active)

Cc1ccccc1-c1ccc2c(c1)O[C@@H](CN(C)Cc1ccncc1)[C@H](C)CN([C@H](C)CO)S2(=O)=O
AC50 [26]: 3.9 µM (active) | AC50 [27]: > 39 µM (inactive)

COc1ccccc1CN1CC2(C1)[C@H](c1ccccc1)[C@@H](CO)N2Cc1ccccc1
AC50 [28]: 0.765 µM (active) | AC50 [29]: 24.9 µM (active) | AC50 [30]: 0.477 µM (active) | AC50 [31]: 0.656 µM (active)

COc1ccc2c3c(n(C)c2c1)[C@@H](CO)N(C(=O)Nc1ccc(F)cc1)CC31CN(Cc2ccccc2F)C1
AC50 [26]: 5.53 µM (active) | AC50 [27]: 24.2 µM (active)

COc1cccc(S(=O)(=O)N2CCC3(CC2)CN[C@H](CO)c2[nH]c4cc(OC)ccc4c23)c1
AC50 [28]: 4.68 µM (active) | AC50 [29]: 33.2 µM (active) | AC50 [26]: 2.6 µM (active) | AC50 [30]: 2.53 µM (active) | AC50 [31]: 2.52 µM (active)

N#C[C@H]1[C@@H](c2ccc(C#Cc3ccccc3F)cc2)[C@@H](CO)N1C(=O)C1CCCC1
AC50 [28]: 1.69 µM (active) | AC50 [29]: 54.2 µM (active) | AC50 [26]: 1.84 µM (active) | AC50 [30]: 1.18 µM (active) | AC50 [27]: > 39 µM (inactive) | AC50 [31]: 1.88 µM (active)

CCCc1cn(CC[C@H]2CC[C@H](NS(=O)(=O)c3ccc(-c4ccccc4)cc3)[C@@H](CO)O2)nn1
AC50 [26]: 4.48 µM (active) | AC50 [27]: > 39 µM (inactive)

OC[C@@H]1[C@H](c2ccc(-c3ccccc3)cc2)[C@H]2CN(CCC(F)(F)F)CCCCN12
AC50 [28]: 1.15 µM (active) | AC50 [29]: 18 µM (active) | AC50 [26]: 2.13 µM (active) | AC50 [30]: 0.623 µM (active) | AC50 [27]: 21.7 µM (active) | AC50 [31]: 1.29 µM (active)
